# Assay results from US6921545B2 (priority 2001, dated 2005).
# Where “and” joins values, the source holds several entries; their conditions need not be identical. Identical values can stand only once. Counter-ions that a name gives are not always drawn.
# Legend:
# insect eggs = conditions: in vivo; cited from earlier work
# [1] = system: Tribolium castaneum 30 live beetles and brood; conditions: in vivo
# [2] = system: Ephestia kuehniella (50 eggs); conditions: in vivo
# [3] = system: Sitophilus granarius, Ephestia kuehniella eggs, Tribolium castaneum and brood; conditions: in vivo
# [4] = system: Sitophilus granarius (broodmixture); conditions: in vivo
SMILES,minimum concentration for achieving an ovicidal action (insect eggs) [g/m^3],other results
COC=O [methyl formate],20,–
CC#N [acetonitrile],10,–
O=C=S [carbonyl sulfide],5,–
CN=C=S [methyl isothiocyanate],5,–
"O=S(=O)(F)F [SO2F2, sulfuryl fluoride]",–,Offspr. (offspring in the fumigation test) [1]: 3 beetles and 4 beetles and 5 beetles; Offspr. (offspring in the fumigation test) [2]: 0; offspring produced [3]: offspring were produced; Offspr. (offspring in the fumigation test) [4]: 0 beetles
